Laboratory results as given in patent US20250144107A1, “USE OF A PIKFYVE INHIBITOR IN COMBINATION WITH IMMUNOTHERAPY” (The Regents of the University of Michigan, priority 2023, published 2025).

What was measured:
cDCs = experiment: Phenotype of cultured cDCs (flow cytometry, western blot); assay type: cell-based, mice
Method: FIG. 13G (Left) is a line graph of the relative median fluorescent intensity of the surface MHC-I on DMSO or apilimod-treated cDCs treated for 20 hours after 6 days of culture. FIG. 13G (Right) is a box and whisker plot of the surface MHC-I on DMSO or apilimod-treated cDCs treated for 20 hours after 6 days of culture
FIG. 13H a western blot showing the total vinculin, loading control, and total MHC-I in DMSO or apilimod-treated, 20 hours, cDC lysates after 6 days of culture.
FIG. 13K (Left) is a line graph of the relative median fluorescent intensity of the surface MHC-II on DMSO or apilimod-treated, 20 hours, cDCs treated after 6 days of culture. FIG. 13K (Right) is a box and whisker plot of the surface MHC-II on DMSO or apilimod-treated, 20 hours, cDCs treated after 6 days of culture.
FIG. 13L a western blot showing the total vinculin, loading control, and total MHC-II in DMSO or apilimod-treated, 20 hours, cDC lysates after 6 days of culture.
FIG. 13N a western blot showing the total histone H3, loading control, and total CD80 and CD86 in apilimod-treated, 20 hours, PIKfyve WT vs. KO cDC lysates after 6 days of culture.
FIG. 13P is a series of six scatter plots of surface CD80 and CD86 on DMSO or apilimod-treated cDCs, with or without 20 hours of PolyI:C, 50 μg/ml, or lipopolysaccharide (LPS), 50 ng/ml, treatment after 6 days of culture.
FIG. 13R a western blot showing the total vinculin, loading control, and total CD40 in DMSO or apilimod-treated, 20 hours, cDC lysates treated with or without additional LPS, 50 ng/ml, after 6 days of culture day 6.
FIG. 19B is a line graph of representative density plot of median fluorescent intensity of surface XCR1 in DMSO or apilimod-treated, 20 hours, cDCs after 6 days of culture.
FIG. 26G is a line graph of the relative median fluorescent intensity of the surface MHC-I, H2-kb, H2-kd, on DMSO or apilimod-treated cDCs with or without PolyI:C, 50 μg/ml or LPS, 50 ng/ml, treatment, 20 hours, after 6 days of culture.
FIG. 26H is a line graph of the relative median fluorescent intensity of the surface MHC-II, MHC-IA-IE, on DMSO or apilimod-treated cDCs with or without PolyI:C, 50 μg/ml or LPS, 50 ng/ml, treatment, 20 hours, after 6 days of culture.

[1] = test system: tumor infiltrating DCs in B16F10 tumors; experiment: Tumor infiltrating DCs in B16F10 tumors of PIKfyve KO or WT mice; assay type: in vivo; details: for percentage of cDC1s: 30 mg/kg daily
Method: FIG. 15E is a box and whisker plot of the XCR1 median fluorescent intensity by % cDC1 subset in B16F10 tumor model treated with vehicle or apilimod, 30 mg/kg daily.
FIG. 15F is a series of three box and whisker plot of the XCR1 median fluorescent intensity by all DCs, cDC1 or cDC2 subset in PIKfyve KO mice or WT mice treated with vehicle or apilimod, 30 mg/kg daily.
FIG. 23F is a box and whisker plot of the % cDC2 of all DC cells in PIKfyve KO mice or WT mice treated with vehicle or apilimod, 30 mg/kg daily.
FIG. 23G is a series of three box and whisker plots of the SIRP1α median fluorescent intensity by all DC, cDC1 or cDC2 subset in PIKfyve KO mice or WT mice treated with vehicle or apilimod, 30 mg/kg daily.

[2] = Overall comparison across preclinical models; assay type: in vivo; details: in many of models; dose of apilimod higher than ESK981
Excerpt: This could be, at least partially, explained by the reported instability of apilimod See, e.g., Ikonomov, O. C. et al., Toxicol. Appl. Pharmacol. 2019; 383:114771.

subcutaneous MC38 tumors = experiment: Subcutaneous MC38 tumor model; assay type: in vivo, mice
Method: FIG. 16A is a line graph of the subcutaneous tumor volume of MC38 tumors in mice treated with vehicle or apilimod, 30 mg/kg×5 days/week.
FIG. 16B is a series of two scatter plots of the percent IFNγ^+ of CD8^+ T cells in vehicle or apilimod-treated MC38 tumors.
FIG. 16C is a line graph of the subcutaneous tumor volume of MC38 tumors in mice treated with vehicle versus apilimod, 30 mg/kg×5 days/week, in wild-type or Batf3^−/− mice.
FIG. 26A is a bar graph of the percent IFNγ^+ of CD8^+ T cells in vehicle or apilimod-treated, 30 mg/kg×5 days/week MC38 tumors.
FIG. 26B is a line graph of the subcutaneous tumor volume of MC38 tumors treated with vehicle versus apilimod, 30 mg/kg×5 days/week, in NSG™ mice.
FIG. 26C is a line graph of the subcutaneous tumor volume of MC38 tumors in mice treated with vehicle versus apilimod, 30 mg/kg×5 days/week, and additionally treated with IgG2a or αIL-12p40 blocking antibody.
FIG. 26D is a line graph of the subcutaneous tumor volume of MC38 tumors in mice treated with vehicle versus apilimod, 30 mg/kg×5 days/week, and additionally treated with IgG1 or αIFNγ blocking antibody.

## Cc1cccc(/C=N/Nc2cc(N3CCOCC3)nc(OCCc3ccccn3)n2)c1 [apilimod, N-[(E)-(3-methylphenyl)methylideneamino]-6-morpholin-4-yl-2-(2-pyridin-2-ylethoxy)pyrimidin-4-amine]
cDCs; 20 hours
  surface and total protein expression of MHC-II: increased
cDCs; DCs in vitro, each agent
  MHC-I and MHC-II expression: stimulated
cDCs; WT DCs, in a dose-dependent manner
  CD80 and CD86 expression: induced
cDCs; added to LPS treatment, vs DMSO
  total expression of CD40: increased
cDCs; alone and in combination with PolyI:C and LPS
  CD80+CD86+ cDCs: increase
cDCs; apilimod added to PolyI:C or LPS
  MHC-I and MHC-II expression: further enhanced
cDCs; cDCs from WT mice, 20 hours
  surface and total protein expression of MHC-I: increased
cDCs; cultured cDCs, 20 hours, vs DMSO
  total surface expression of XCR1: increase
[1]; KO mice
  percentage of cDC1s: no additional increase
[1]; WT and KO mice
  total surface XCR1 expression, differences between groups compared with cDC1 percentage: the same
[1]; WT mice
  percentage of cDC1s: increased
[1]; between any groups
  percentage of cDC2s or total surface SIRP1α expression: no changes
[2]
  efficacy relative to ESK981: weaker than ESK981
Subcutaneous MC38 tumors; Batf3−/− vs WT mice
  efficacy in Batf3−/− mice: loss of apilimod efficacy
Subcutaneous MC38 tumors; WT mice
  percentage of intratumoral IFNγ+CD8+ T cells: increased
Subcutaneous MC38 tumors; WT mice, 30 mg/kg x 5 days/week, vs vehicle
  MC38 tumor growth: reduced
Subcutaneous MC38 tumors; immune-deficient NSG mice
  efficacy in NSG mice: lost
Subcutaneous MC38 tumors; vs isotype control
  efficacy with neutralizing antibody against IFNγ: reduced
  efficacy with neutralizing antibody against IL-12: reduced
